Here are results for 51 molecules from US9150546B2, “Triazine derivative and pharmaceutical composition comprising the same” (SHIONOGI & CO., LTD., priority 2009, dated 2015).

This assay has as its target human P2X3 receptor (Homo sapiens (Human), UniProt P56373). Nature of the assay: P2X3 receptor inhibition, ATP-evoked Fluo-3 fluorescence (FDSS 3000). The class given is cell-based. As to conditions: C6BU-1 cell transfected with human P2X3 receptor gene.

human P2X3 receptor, sequence (P56373 whole entry): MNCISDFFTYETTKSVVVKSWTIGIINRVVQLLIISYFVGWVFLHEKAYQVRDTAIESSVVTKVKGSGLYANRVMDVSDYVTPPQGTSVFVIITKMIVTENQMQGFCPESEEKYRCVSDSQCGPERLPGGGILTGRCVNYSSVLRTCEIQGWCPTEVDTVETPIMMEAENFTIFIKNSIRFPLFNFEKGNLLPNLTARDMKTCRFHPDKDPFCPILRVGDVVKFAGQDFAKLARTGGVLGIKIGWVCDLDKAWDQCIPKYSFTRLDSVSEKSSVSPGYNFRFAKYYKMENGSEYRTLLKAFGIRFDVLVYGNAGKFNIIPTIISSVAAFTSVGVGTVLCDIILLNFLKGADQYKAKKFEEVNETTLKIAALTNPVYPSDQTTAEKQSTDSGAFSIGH

By IC50 is commonly meant the concentration that inhibits the measured activity by half. Higher therefore signals weaker potency in that assay. For `CC(C)Oc1ccc(Nc2nc(=O)n(C(C)C)c(=O)n2Cc2ccc(Cl)cc2)cn1` [I-394], the IC50 was determined as 435 nM.
`CC(C)Oc1ccc(Nc2nc(=O)n(C(C)C)c(=O)n2Cc2ccc(Cl)cc2)cc1C#N` [I-245] came in with an IC50 of 168 nM.
With `Cc1ccc(Cn2c(=O)n(CC(C)(C)C(=O)O)c(=O)[nH]/c2=N\c2ccc(OC(C)C)c(F)c2)cc1F` [I-413], 99 nM corresponded to half-maximal inhibition (IC50).
Then `CCOc1ccc(/N=c2\[nH]c(=O)n(CC(C)(C)C(=O)O)c(=O)n2Cc2ccc(Cl)cc2)cc1Cl` [I-446], with 20 nM; and `CC(C)Oc1ccc(Nc2nc(=O)n(CCOC3CCCCO3)c(=O)n2Cc2ccc(Cl)cc2)cc1F` (stereo not drawn) [I-545], with 6 nM.
As for `CCCCn1c(=O)nc(Nc2cccc(C(F)(F)F)c2)n(Cc2ccc(C)cc2)c1=O` [I-029], the figure is 595 nM.
The molecule `CC(C)n1c(=O)nc(Nc2ccc(C(=O)NC3CC3)cc2)n(Cc2ccc(Cl)cc2)c1=O` [I-257] returned an IC50 of 682 nM.
Molecule `CC(C)Oc1ccc(/N=c2\[nH]c(=O)n(CCC(C)(C)C(=O)O)c(=O)n2Cc2ccc(Cl)cc2)cc1Cl` [I-421] yielded an IC50 of 19 nM.
In turn, `COC(=O)C(C)(C)Cn1c(=O)[nH]/c(=N\c2ccc(OC(C)C)c(F)c2)n(Cc2ccc(C)cc2)c1=O` [I-404] displayed an IC50 of 12 nM.
`COc1nc(=O)n(Cc2ccc(Cl)cc2)/c(=N/c2ccc(OC(C)C)c(Cl)c2)[nH]1` [I-433] yielded a half-inhibitory concentration (IC50) of 199 nM.
In turn, `Cc1cc(/N=c2\[nH]c(=O)n(C[C@@H](C)C(=O)O)c(=O)n2Cc2ccc(Cl)cc2)ccc1OC(C)C` [I-486] returned a 50% inhibitory concentration (IC50) of 42 nM.
For the molecule `Cc1cc(/N=c2\[nH]c(=O)[nH]c(=O)n2Cc2ccc(Cl)cc2)ccc1OC(C)C` [I-499], the IC50 amounted to 137 nM.
`Cc1nc2cc(/N=c3\[nH]c(=O)n(CC(C)(C)C(=O)O)c(=O)n3Cc3ccc(Cl)cc3)ccc2o1` [I-497] registered an IC50 of 458 nM.
As for `CSc1cccc(/N=c2\[nH]c(=O)n(CC(C)(C)C(=O)O)c(=O)n2Cc2ccc(Cl)cc2)c1` [I-510], the figure is 98 nM; as for `CCOc1ccc(/N=c2\[nH]c(=O)n(C[C@@H](C)C(=O)O)c(=O)n2Cc2ccc(Cl)cc2)cc1` [I-484], 290 nM.
Then `CC(C)Oc1ccc(/N=c2\[nH]c(=O)n(CCCC(=O)O)c(=O)n2Cc2ccc(Cl)cc2)cc1Cl` [I-500], with 13 nM; and `COC(=O)[C@H](C)Cn1c(=O)[nH]/c(=N\c2ccc(OC(C)C)c(F)c2)n(Cc2ccc(Cl)cc2)c1=O` [I-452], with 3 nM.
The molecule `CC(C)Oc1ccc(Nc2nc(=O)n(CCN(C)C)c(=O)n2Cc2ccc(Cl)cc2)cc1F` [I-272] registered an IC50 of 180 nM.
Consider `Cc1ccc(Cn2c(Nc3cccc(Cl)c3)nc(=O)n(C(C)C)c2=O)cc1` [I-117], for which the IC50 is 387 nM.
For `CC(C)Oc1ccc(Nc2nc(=O)n(CC(CO)CO)c(=O)n2Cc2ccc(Cl)cc2)cc1` [I-368], the midpoint of inhibition, the IC50, lay at 41 nM.
Then `CC(C)Oc1ccc(/N=c2\[nH]c(N3CCCC3=O)nc(=O)n2Cc2ccc(Cl)cc2)cc1Cl` [II-012], with 568 nM; and `O=c1nc(Nc2ccc(OC(F)F)cc2)n(Cc2ccc(Cl)cc2)c(=O)n1CCO` [I-329], with 266 nM.
Turning to `CC(C)Oc1ccc(Nc2nc(=O)n(C(C)C)c(=O)n2Cc2ccc(F)cc2)cc1Cl` [I-203], the IC50 was found to be 110 nM.
Take `CCOC(=O)CCCn1c(=O)[nH]/c(=N\c2ccc(OC(C)C)c(Cl)c2)n(Cc2ccc(Cl)cc2)c1=O` [I-498]: the IC50 was found to be 9 nM.
As for `CCCCc1ccc(Nc2nc(=O)n(CCO)c(=O)n2Cc2ccc(Cl)cc2)cc1` [I-344], the figure is 128 nM; as for `O=c1nc(Nc2cccc(-c3ccon3)c2)n(Cc2ccc(Cl)cc2)c(=O)n1CCO` [I-314], 555 nM; as for `O=c1nc(Nc2ccc(-c3ccon3)cc2)n(Cc2ccc(Cl)cc2)c(=O)n1CCO` [I-278], 931 nM.
`CCOC(=O)CCn1c(=O)nc(Nc2ccc(OC(C)C)c(F)c2)n(Cc2ccc(Cl)cc2)c1=O` [I-356] returned an IC50 of 12 nM.
As for `COC(=O)[C@H](C)Cn1c(=O)[nH]/c(=N\c2ccc(OC(C)C)c(Cl)c2)n(Cc2ccc(Cl)cc2)c1=O` [I-457], the figure is 3 nM.
`CCOC(=O)C1(Cn2c(=O)[nH]/c(=N\c3ccc(OC(C)C)c(F)c3)n(Cc3ccc(Cl)cc3)c2=O)CC1` [I-422]: half-maximal inhibition (IC50) required 6 nM.
As for `Cc1ccc(Cn2c(=O)n(CCC(=O)O)c(=O)[nH]/c2=N\c2ccc(OC(C)C)c(F)c2)cc1` [I-411], the figure is 61 nM.
Take `COC(=O)[C@@H](C)Cn1c(=O)[nH]/c(=N\c2ccc(OC(C)C)c(Cl)c2)n(Cc2ccc(Cl)cc2)c1=O` [I-458]: inhibition was half-maximal at 4 nM (IC50).
Regarding `COC(=O)C[C@@H](C)n1c(=O)[nH]/c(=N\c2ccc(OC(C)C)c(F)c2)n(Cc2ccc(Cl)cc2)c1=O` [I-560], the IC50 was 7 nM.
As for `CCOc1ccc(/N=c2\[nH]c(=O)n(C[C@H](C)C(=O)O)c(=O)n2Cc2ccc(Cl)cc2)cc1C` [I-536], the figure is 46 nM.
Turning to `CCOc1ccc(/N=c2\[nH]c(=O)n(C[C@@H](C)C(=O)O)c(=O)n2Cc2ccc(Cl)cc2)cc1C` [I-485], the IC50 was 198 nM.
Turning to `CC(C)n1c(=O)nc(Nc2ccc3[nH]c(=O)oc3c2)n(Cc2ccc(Cl)cc2)c1=O` [I-246], the IC50 amounted to 996 nM.
In turn, `COC(=O)C[C@H](C)n1c(=O)[nH]/c(=N\c2ccc(OC(C)C)c(F)c2)n(Cc2ccc(Cl)cc2)c1=O` [I-523] came in with an IC50 of 72 nM.
As for `COC(=O)[C@@H](C)Cn1c(=O)nc(Nc2ccc(OC(C)C)c(C)c2)n(Cc2ccc(Cl)cc2)c1=O` [I-531], the figure is 10 nM.
`COC(=O)C(C)(C)Cn1c(=O)[nH]/c(=N\c2ccc3oc(C)cc3c2)n(Cc2ccc(Cl)cc2)c1=O` [I-489]: the IC50 was 10 nM.
The molecule `CCOC(=O)CCCn1c(=O)[nH]/c(=N\c2ccc3oc(C)cc3c2)n(Cc2ccc(Cl)cc2)c1=O` [I-504] had an IC50 of 15 nM.
The molecule `CC(C)Oc1ccc(Nc2nc(=O)n(CC(C)(C)CN)c(=O)n2Cc2ccc(Cl)cc2)cc1F` [I-331] displayed an IC50 of 66 nM.
As for `CC(C)Oc1ccc(Nc2nc(=O)n(CCNC(N)=O)c(=O)n2Cc2ccc(Cl)cc2)cc1F` [I-386], the figure is 41 nM; as for `COC(=O)c1ccc(Nc2nc(=O)n(C(C)C)c(=O)n2Cc2ccc(F)cc2)cc1` [I-221], 276 nM.
As for `CCOc1ccc(Nc2nc(=O)n(C[C@H](C)C(=O)OC)c(=O)n2Cc2ccc(Cl)cc2)cc1` [I-530], the figure is 34 nM; as for `CSc1cccc(Nc2nc(=O)n(C(C)C)c(=O)n2Cc2ccc(C)cc2)c1` [I-118], 231 nM.
On to `CCCn1c(=O)nc(Nc2ccc(OC(C)C)c(F)c2)n(Cc2ccccc2)c1=O` [I-349], for which the IC50 is 113 nM.
Then `CCOC(=O)c1ccccc1Cn1c(=O)[nH]/c(=N\c2ccc(OC(C)C)c(F)c2)n(Cc2ccc(Cl)cc2)c1=O` [I-454], with 24 nM; and `O=c1nc(Nc2ccc(-c3ccon3)cc2)n(Cc2ccc(Cl)cc2)c(=O)n1CCN1CCOCC1` [I-287], with 222 nM.
As for `COCCn1c(=O)nc(Nc2ccc(OC(C)C)c(F)c2)n(Cc2ccc(Cl)cc2)c1=O` [I-280], the figure is 30 nM; as for `CC(C)Oc1ccc(Nc2nc(=O)n(CCO)c(=O)n2Cc2ccc([N+](=O)[O-])cc2)cc1F` [I-347], 251 nM; as for `CCOc1ccc(/N=c2\[nH]c(=O)n(C[C@H](C)C(=O)O)c(=O)n2Cc2ccc(Cl)cc2)cc1Cl` [I-539], 7 nM.
